Measured values published in patent US20220280594A1, “APPLICATION OF POLYPEPTIDE OR DERIVATIVE THEREOF” (CHENGDU HUITAI BIOMEDICINE CO., LTD., priority 2019, published 2022).
Ends that are not written are not given here. PEG = not defined here

How the values were obtained:
[1] = system: human breast cancer cells (MDA-MB-453); experiment: scratch assay, migration of MDA-MB-453 cells; assay type: cell-based; details: MDA-MB-453, 10 μM, 48 hours; control group 32.42 ± 2.04
In short: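 Confluent MDA-MB-453 monolayers were scratched, then treated with peptide at 10 μM in 2% FBS medium for 48 h, with a PBS control and triplicate wells. Migration rate (%) was taken as (original − current scratch width)/original width ×100 from images.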

[2] = system: human lung cancer cells (A549) subcutaneous xenograft; experiment: lung cancer subcutaneous xenograft animal model, intravenous injection; assay type: in vivo, mice (BALB/c-nu/nu); details: intravenous 60 mg/kg once every other day, 20 days; for Weight of tumor (g) (mean ± SD): control 2.53 ± 0.17; for Volume of tumor (mm^3) (mean ± SD): control 3373.26 ± 581.44
In short: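 Female BALB/c-nu/nu mice (4-6 weeks) inoculated subcutaneously with ~2×10^6 A549 cells; grouped once tumours exceeded 100 mm^3. Peptides given intravenously at 60 mg/kg for 20 days versus model control. Tumour weight and volume measured at dissection; body weight recorded every other day.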

[3] = system: human lung cancer cells (95D); experiment: scratch assay, migration of 95D cells; assay type: cell-based; details: 10 μM, 48 hours, control group 55.3 ± 3.19
In short: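 Confluent 95D monolayers were scratched, washed with PBS and cultured 48 h in 2% FBS medium containing peptide (10 μM) or PBS control, in triplicate wells. Scratch width was measured on images; migration rate (%) = (original width − current width)/original width × 100.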

[4] = system: human oral epidermoid carcinoma KB cells; experiment: scratch assay, migration of KB cells; assay type: cell-based; details: 10 μM, 48 hours, control group 54.03 ± 4.21
In short: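 Monolayers of KB cells were scratched, washed with PBS, then cultured 48 hours in 2% FBS medium containing test polypeptide (10 μM) or PBS control, in triplicate wells. From images, migration rate (%) = (original − current scratch width)/original width × 100.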

[5] = system: human pancreatic cancer cells (PANC-1); experiment: transwell migration assay, PANC-1 cells; assay type: cell-based; details: PANC-1 transwell migration, 10 μM, 24 hours; control group 360 ± 60
In short: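 Serum-free PANC-1 cells placed in the upper transwell chamber with complete medium below; after 4-5 h, peptide added to the upper chamber at a final 10 μM. Migration ran 24 h at 37 °C; cells on the membrane underside were methanol-fixed, crystal violet-stained and counted by microscopy.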

[6] = system: human lung squamous carcinoma cells (NCI-H226); experiment: scratch assay, migration of NCI-H226 cells; assay type: cell-based; details: NCI-H226, 10 μM, 48 hours; control group 65.31 ± 3.19
In short: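 A straight scratch was made in confluent NCI-H226 monolayers (1-2×10^5 cells/well). Cells were then kept 48 h in 2% FBS medium with 10 μM polypeptide or PBS control, triplicate wells. Migration rate (%) = (original − current scratch width)/original width ×100, from imaged scratch widths.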

[7] = system: human non-small cell lung cancer cells (A549); experiment: scratch assay, migration of A549 cells; assay type: cell-based; details: A549, 10 μM, 48 hours; control group 75.31 ± 8.19
In short: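 Confluent A549 monolayers in 24-well plates were scratched, washed with PBS, then cultured 48 h in 2% FBS medium with peptide at 10 μM or PBS control, triplicate wells. Scratch width measured from images; migration rate (%) = (original − current width)/original width × 100.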

[8] = system: human liver adenocarcinoma cells (SK-HEP-1); experiment: transwell migration assay, SK-HEP-1 cells; assay type: cell-based; details: SK-HEP-1 transwell migration, 10 μM, 24 hours; control group 1 782 ± 108, control group 2 768 ± 86
In short: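 SK-HEP-1 cells in serum-free medium seeded in upper transwell chamber (2-3×10^5 cells/mL) over complete medium; after 4-5 h at 37 °C, 5% CO2, peptide added at 10 μM final in upper chamber. After 24 h, migrated cells fixed in methanol, crystal-violet stained, imaged and counted.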

[9] = system: human thyroid cancer cells (FRO); experiment: scratch assay, migration of FRO cells; assay type: cell-based; details: 10 μM, 48 hours, control group 60.34 ± 8.32
In short: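 FRO monolayers were scratched, washed, and cultured 48 h in 2% FBS medium with polypeptide derivatives at 10 μM or PBS control, three wells per group. Migration rate (%) = (original − current scratch width)/original width × 100, measured from images.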

Row | Substance | Migration rate (%) (mean ± SD, P) [1] | Weight of tumor (g) (mean ± SD) [2] | Volume of tumor (mm^3) (mean ± SD) [2] | Migration rate (%) (mean ± SD, P) [3] | Migration rate (%) (mean ± SD, P) [4] | Number of cells (mean ± SD, P), migrated cells [5] | Migration rate (%) (mean ± SD, P) [6] | Migration rate (%) (mean ± SD, P) [7] | Number of cells (mean ± SD, P), migrated cells [8] | Migration rate (%) (mean ± SD, P) [9]
1 | N25: SEQ ID NO: 1 with substitution N18R and addition of two amino acids at the carboxyl terminal (YRVRFLAKENVTQDAEDRCT) | 21.05 ± 2.53,* % | 0.69 ± 0.21 g | 1169.92 ± 572.47 mm^3 | 40.70 ± 3.25,** % | 18.32 ± 2.63,** % | 217 ± 31,** | 15.03 ± 8.16,*** % | 34.66 ± 7.73,** % | 58 ± 15,**** | 14.31 ± 2.47,*** %
2 | N51: SEQ ID NO: 1 with A15R, one amino acid added at each terminal, PEG modification at the amino terminal ({PEG}-FYRVRFLAKENVTQDREDNC; reading uncertain) | 10.6 ± 2.33,*** % | 0.75 ± 0.37 g | 1412.56 ± 599.92 mm^3 | 30.04 ± 5.08,** % | 37.96 ± 3.60,* % | 214 ± 17,*** | 33.16 ± 4.43,** % | 53.59 ± 5.62,* % | 306 ± 46,*** | 17.93 ± 5.55,** %
3 | N40: SEQ ID NO: 1 with deletion of positions 1-5 and 15-18, PEG at the amino terminal, two amino acids added at the carboxyl terminal ({PEG}-LAKENVTQDRC; reading uncertain) | 13.88 ± 6.51,** % | 0.98 ± 0.36 g | 997.42 ± 267.79 mm^3 | 36.23 ± 5.05,** % | 6.47 ± 4.39,*** % | 264 ± 12,* | 17.00 ± 6.49,*** % | 20.15 ± 8.91,** % | 290 ± 33,**** | 39.96 ± 4.95,* %
4 | N6: SEQ ID NO: 1 with deletion of four amino acids at the carboxyl terminal (positions 15-18) (YRVRFLAKENVTQD) | 13.01 ± 3.14,** % | 0.88 ± 0.19 g | 1361.03 ± 248.72 mm^3 | 39.20 ± 4.24,** % | 15.79 ± 3.16,** % | 144 ± 12,*** | 19.72 ± 8.97,** % | 40.67 ± 3.66,** % | 157 ± 13,**** | 3.24 ± 1.80,*** %
5 | N14: SEQ ID NO: 1 with deletion of positions 1-5 and addition of one amino acid at the carboxyl terminal (LAKENVTQDAEDNC) | 7.58 ± 2.34,*** % | 0.7 ± 0.26 g | 1431.61 ± 215.71 mm^3 | 32.55 ± 5.71,** % | 11.22 ± 2.66,*** % | 263 ± 16,* | 19.97 ± 2.94,*** % | 15.27 ± 8.75,*** % | 61 ± 14,**** | 14.09 ± 2.47,*** %
6 | N4: SEQ ID NO: 1 with deletion of positions 15-18 and positions 1-3 (RFLAKENVTQD) | 15.74 ± 4.83,* % | 0.56 ± 0.19 g | 1515.07 ± 507.99 mm^3 | 31.65 ± 3.82,** % | 5.96 ± 2.32,*** % | 268 ± 20,* | 10.00 ± 10.27,** % | 51.53 ± 3.72,* % | 357 ± 21,*** | 11.34 ± 2.73,*** %
7 | N28: SEQ ID NO: 1 with deletion of positions 1-2 and 18 and PEG modification at the amino terminal ({PEG}-VRFLAKENVTQDAED; reading uncertain) | 11.32 ± 5.61,** % | 0.91 ± 0.21 g | 1286.52 ± 344.21 mm^3 | 28.08 ± 3.38,*** % | 11.24 ± 3.52,*** % | 148 ± 21,*** | 18.08 ± 7.38,*** % | 17.20 ± 6.23,*** % | 51 ± 25,**** | 8.77 ± 2.85,*** %
8 | N26: SEQ ID NO: 1 with substitution A15R, addition of one amino acid at the amino terminal and one at the carboxyl terminal (FYRVRFLAKENVTQDREDNC) | 6.19 ± 1.42,*** % | 0.57 ± 0.22 g | 1163.91 ± 457.09 mm^3 | 37.20 ± 5.94,** % | 23.71 ± 4.86,* % | 119 ± 17,*** | 18.41 ± 7.90,*** % | 25.04 ± 6.01,** % | 68 ± 19,**** | 11.21 ± 4.01,*** %
9 | N33: SEQ ID NO: 1 with deletion of positions 1-5, addition of one amino acid and PEG modification at the carboxyl terminal (LAKENVTQDAEDNC-{PEG}; reading uncertain) | 10.76 ± 4.13,*** % | 0.57 ± 0.24 g | 1699.23 ± 709.14 mm^3 | 30.73 ± 5.87,** % | 6.01 ± 1.62,*** % | 178 ± 14,*** | 40.73 ± 4.87,** % | 33.22 ± 4.51,** % | 354 ± 31,*** | 7.03 ± 2.02,*** %
10 | N18: SEQ ID NO: 1 with addition of one amino acid at the amino terminal and one at the carboxyl terminal (FYRVRFLAKENVTQDAEDNC) | 9.97 ± 2.44,*** % | 1.3 ± 0.24 g | 1161.51 ± 297.07 mm^3 | 25.71 ± 4.05,*** % | 12.67 ± 2.33,*** % | 232 ± 24,* | 48.17 ± 3.85,** % | 55.71 ± 4.05,* % | 96 ± 28,**** | 22.96 ± 5.05%
